pIC50: −log10 of the molar value.
Key:
[1] = target: Serine/threonine-protein kinase Nek4 (Homo sapiens) (UniProt P51957); test: Inhibition of human NEK4 at 100 nM using MBP as substrate by [gamma-33P]-ATP assay
[2] = target: Protein kinase C iota type (Homo sapiens) (UniProt P41743); test: Inhibition of human PKCiota at 100 nM using ERMRPRKRQGSVRRRV as substrate by [gamma-33P]-ATP assay
[3] = target: Casein kinase I isoform delta (Homo sapiens) (UniProt P48730); test: Inhibition of human CK1D at 100 nM using KRRRAL[pS]VASLPGL as substrate by [gamma-33P]-ATP assay
[4] = target: 3-phosphoinositide-dependent protein kinase 1 (Homo sapiens) (UniProt O15530); test: Inhibition of human PDK1/PDPk1 at 100 nM using [KTFCGTPEYLAPEVRREPRILSEEEQEMFRDFDYIADWC as substrate by [gamma-33P]-ATP assay
[5] = target: Tyrosine-protein kinase JAK3 (Homo sapiens) (UniProt P52333); test: Inhibition of human JAK3 at 100 nM using poly[Glu:Tyr] (4:1) as substrate by [gamma-33P]-ATP assay
[6] = target: Serine/threonine-protein kinase 17A (Homo sapiens) (UniProt Q9UEE5); test: Inhibition of human DRAK1 at 100 nM using KKLNRTLSFAEPG as substrate by [gamma-33P]-ATP assay
[7] = target: Serine/threonine-protein kinase LATS2 (Homo sapiens) (UniProt Q9NRM7); test: Inhibition of human LATS2 at 100 nM using KKRNRRLSVA as substrate by [gamma-33P]-ATP assay
[8] = target: Serine/threonine-protein kinase greatwall (Homo sapiens) (UniProt Q96GX5); test: Inhibition of human MASTL at 100 nM using ERK2 as substrate by [gamma-33P]-ATP assay
[9] = target: Mitogen-activated protein kinase kinase kinase 6 (Homo sapiens) (UniProt O95382); test: Inhibition of human MEKK6 at 100 nM using MBP as substrate by [gamma-33P]-ATP assay
Chain of Mitogen-activated protein kinase kinase kinase 6 (Homo sapiens) (O95382 whole entry): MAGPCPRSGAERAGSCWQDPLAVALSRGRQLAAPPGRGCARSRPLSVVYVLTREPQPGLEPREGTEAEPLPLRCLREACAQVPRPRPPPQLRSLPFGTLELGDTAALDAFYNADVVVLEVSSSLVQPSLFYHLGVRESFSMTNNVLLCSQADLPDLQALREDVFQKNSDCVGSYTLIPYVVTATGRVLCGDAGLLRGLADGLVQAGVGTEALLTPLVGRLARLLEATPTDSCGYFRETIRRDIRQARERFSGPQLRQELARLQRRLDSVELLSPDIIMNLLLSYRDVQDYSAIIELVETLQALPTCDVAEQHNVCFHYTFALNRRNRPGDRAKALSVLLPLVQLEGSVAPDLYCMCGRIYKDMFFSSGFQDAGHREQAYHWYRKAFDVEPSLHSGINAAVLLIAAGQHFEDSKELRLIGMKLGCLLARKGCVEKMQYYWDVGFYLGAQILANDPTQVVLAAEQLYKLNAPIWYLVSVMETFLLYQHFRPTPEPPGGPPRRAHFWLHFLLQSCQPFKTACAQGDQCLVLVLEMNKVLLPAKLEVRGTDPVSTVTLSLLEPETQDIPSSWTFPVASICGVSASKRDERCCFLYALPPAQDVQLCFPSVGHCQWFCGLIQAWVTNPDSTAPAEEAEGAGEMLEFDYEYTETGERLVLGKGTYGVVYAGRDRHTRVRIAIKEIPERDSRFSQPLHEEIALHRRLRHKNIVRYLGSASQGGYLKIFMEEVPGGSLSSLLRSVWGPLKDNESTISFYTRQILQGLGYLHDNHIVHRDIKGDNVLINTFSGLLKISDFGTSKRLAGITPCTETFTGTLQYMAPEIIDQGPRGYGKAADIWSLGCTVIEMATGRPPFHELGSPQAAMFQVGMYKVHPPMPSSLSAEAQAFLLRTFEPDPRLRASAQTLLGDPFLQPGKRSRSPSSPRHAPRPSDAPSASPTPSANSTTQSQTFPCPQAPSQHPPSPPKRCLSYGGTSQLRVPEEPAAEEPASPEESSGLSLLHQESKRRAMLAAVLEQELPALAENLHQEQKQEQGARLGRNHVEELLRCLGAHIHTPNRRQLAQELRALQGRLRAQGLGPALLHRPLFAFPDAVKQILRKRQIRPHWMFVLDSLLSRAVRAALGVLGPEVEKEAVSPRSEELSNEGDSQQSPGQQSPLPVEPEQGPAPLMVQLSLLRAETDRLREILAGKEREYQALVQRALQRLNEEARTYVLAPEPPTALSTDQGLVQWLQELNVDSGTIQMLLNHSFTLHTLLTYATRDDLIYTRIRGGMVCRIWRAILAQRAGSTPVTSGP

[10] = target: Rhodopsin kinase GRK1 (Homo sapiens) (UniProt Q15835); test: Inhibition of human GRK1 at 100 nM using casein as substrate by [gamma-33P]-ATP assay
[11] = target: Serine/threonine-protein kinase MARK2 (Homo sapiens) (UniProt Q7KZI7); test: Inhibition of human MARK2 isoform 4 at 100 nM using KKKVSRSGLYRSPSMPENLNRPR as substrate by [gamma-33P]-ATP assay
[12] = target: Serine/threonine-protein kinase DCLK2 (Homo sapiens) (UniProt Q8N568); test: Inhibition of human DCAMKL2 at 100 nM using KKLNRTLSFAEPG as substrate by [gamma-33P]-ATP assay
[13] = target: Mitogen-activated protein kinase kinase kinase 1 (Homo sapiens) (UniProt Q13233); test: Inhibition of human MEKK1 at 100 nM using MBP as substrate by [gamma-33P]-ATP assay
Chain of Mitogen-activated protein kinase kinase kinase 1 (Homo sapiens) (Q13233 whole entry): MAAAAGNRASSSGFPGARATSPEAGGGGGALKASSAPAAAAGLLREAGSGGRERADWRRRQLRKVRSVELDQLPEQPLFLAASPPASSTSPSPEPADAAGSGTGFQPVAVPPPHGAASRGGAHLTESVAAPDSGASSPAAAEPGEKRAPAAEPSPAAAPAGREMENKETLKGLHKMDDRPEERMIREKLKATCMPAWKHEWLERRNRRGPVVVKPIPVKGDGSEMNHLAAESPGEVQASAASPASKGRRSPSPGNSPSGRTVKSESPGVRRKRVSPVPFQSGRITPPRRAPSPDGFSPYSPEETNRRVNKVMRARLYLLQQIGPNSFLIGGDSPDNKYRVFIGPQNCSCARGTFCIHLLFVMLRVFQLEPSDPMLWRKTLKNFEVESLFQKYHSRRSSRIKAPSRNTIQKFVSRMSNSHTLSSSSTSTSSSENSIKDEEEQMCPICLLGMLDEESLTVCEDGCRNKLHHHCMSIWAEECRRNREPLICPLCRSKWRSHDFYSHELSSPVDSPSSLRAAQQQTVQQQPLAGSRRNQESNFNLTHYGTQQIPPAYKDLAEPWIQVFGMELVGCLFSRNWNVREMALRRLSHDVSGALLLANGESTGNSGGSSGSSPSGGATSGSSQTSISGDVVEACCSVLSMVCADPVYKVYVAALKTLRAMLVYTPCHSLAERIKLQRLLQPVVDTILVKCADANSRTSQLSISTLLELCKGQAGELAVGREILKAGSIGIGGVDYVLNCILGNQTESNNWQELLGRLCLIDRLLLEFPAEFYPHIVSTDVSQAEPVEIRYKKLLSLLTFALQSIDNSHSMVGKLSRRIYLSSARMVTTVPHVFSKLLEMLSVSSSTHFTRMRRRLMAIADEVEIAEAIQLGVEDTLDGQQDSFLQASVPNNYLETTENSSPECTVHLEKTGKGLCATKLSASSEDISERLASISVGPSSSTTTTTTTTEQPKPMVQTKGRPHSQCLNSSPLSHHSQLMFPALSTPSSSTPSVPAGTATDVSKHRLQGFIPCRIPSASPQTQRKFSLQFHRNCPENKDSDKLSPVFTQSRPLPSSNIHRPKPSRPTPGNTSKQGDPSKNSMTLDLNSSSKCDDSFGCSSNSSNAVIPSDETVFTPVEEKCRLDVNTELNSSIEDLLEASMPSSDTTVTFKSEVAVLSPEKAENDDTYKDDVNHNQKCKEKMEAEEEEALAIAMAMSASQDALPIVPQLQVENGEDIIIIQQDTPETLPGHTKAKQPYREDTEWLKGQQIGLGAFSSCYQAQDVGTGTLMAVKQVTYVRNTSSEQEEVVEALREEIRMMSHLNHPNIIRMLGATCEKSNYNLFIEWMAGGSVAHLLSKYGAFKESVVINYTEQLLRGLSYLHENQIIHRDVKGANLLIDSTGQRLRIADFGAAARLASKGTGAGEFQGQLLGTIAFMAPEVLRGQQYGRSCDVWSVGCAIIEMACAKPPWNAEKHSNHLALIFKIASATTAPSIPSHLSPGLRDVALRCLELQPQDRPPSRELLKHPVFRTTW

[14] = target: Serine/threonine-protein kinase PAK 3 (Homo sapiens) (UniProt O75914); test: Inhibition of human PAK3 at 100 nM using RRRLSFAEPG as substrate by [gamma-33P]-ATP assay
[15] = target: CDK9/cyclin T1 (Homo sapiens) (UniProt O60563+P50750); test: Inhibition of human CDK9/cyclin-T1 at 100 nM using KTFCGTPEYLAPEVRREPRILSEEEQEMFRDFDYIADWC as substrate by [gamma-33P]-ATP assay; format: protein-complex assay
Homo sapiens [16] = species on record: Homo sapiens; test: Inhibition of human AMPK (A2/B2/G2) at 100 nM using HMRSAMSGLHLVKRR as substrate by [gamma-33P]-ATP assay
[17] = target: Bone morphogenetic protein receptor type-1B (Homo sapiens) (UniProt O00238); test: Inhibition of human ALK6 at 100 nM using casein as substrate by [gamma-33P]-ATP assay
[18] = target: Tyrosine-protein kinase TXK (Homo sapiens) (UniProt P42681); test: Inhibition of human TXK at 100 nM using EAIYAAPFAKKK as substrate by [gamma-33P]-ATP assay
[19] = target: Ephrin type-A receptor 8 (Homo sapiens) (UniProt P29322); test: Inhibition of human EPHA8 at 100 nM using poly[Glu:Tyr] (4:1) as substrate by [gamma-33P]-ATP assay
Chain of Ephrin type-A receptor 8 (Homo sapiens) (P29322 whole entry): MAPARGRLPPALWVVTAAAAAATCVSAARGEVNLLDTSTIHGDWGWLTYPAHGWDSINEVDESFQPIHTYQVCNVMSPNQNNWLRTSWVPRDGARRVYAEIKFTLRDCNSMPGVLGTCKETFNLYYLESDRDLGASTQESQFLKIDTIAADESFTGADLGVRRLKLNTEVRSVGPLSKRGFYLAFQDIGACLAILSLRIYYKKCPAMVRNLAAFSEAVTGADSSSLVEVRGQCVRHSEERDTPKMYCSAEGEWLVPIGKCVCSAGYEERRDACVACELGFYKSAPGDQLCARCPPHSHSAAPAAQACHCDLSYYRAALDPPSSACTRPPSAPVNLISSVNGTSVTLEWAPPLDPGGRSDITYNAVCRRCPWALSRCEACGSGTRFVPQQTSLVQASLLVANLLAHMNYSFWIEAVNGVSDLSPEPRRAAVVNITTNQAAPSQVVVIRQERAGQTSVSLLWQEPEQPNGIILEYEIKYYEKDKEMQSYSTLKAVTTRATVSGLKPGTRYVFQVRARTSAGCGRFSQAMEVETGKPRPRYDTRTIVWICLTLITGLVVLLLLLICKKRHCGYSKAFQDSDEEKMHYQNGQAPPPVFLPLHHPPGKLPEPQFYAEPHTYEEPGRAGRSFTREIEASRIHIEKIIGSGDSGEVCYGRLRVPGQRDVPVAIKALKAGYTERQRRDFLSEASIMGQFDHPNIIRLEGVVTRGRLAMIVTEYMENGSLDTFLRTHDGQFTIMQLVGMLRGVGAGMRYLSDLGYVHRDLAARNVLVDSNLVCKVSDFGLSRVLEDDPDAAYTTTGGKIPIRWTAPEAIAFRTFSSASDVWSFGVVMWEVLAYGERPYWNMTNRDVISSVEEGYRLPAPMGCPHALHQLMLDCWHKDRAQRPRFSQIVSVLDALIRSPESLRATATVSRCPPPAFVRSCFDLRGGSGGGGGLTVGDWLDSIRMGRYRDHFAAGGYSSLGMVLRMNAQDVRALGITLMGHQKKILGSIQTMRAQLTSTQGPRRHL

[20] = target: Aurora kinase C (Homo sapiens) (UniProt Q9UQB9); test: Inhibition of human Aurora C at 100 nM using [H-LRRASLG] as substrate by [gamma-33P]-ATP assay
[21] = target: Protein kinase C beta type (Homo sapiens) (UniProt P05771); test: Inhibition of human PKCb2 at 100 nM using Histone H1 as substrate by [gamma-33P]-ATP assay
[22] = target: Transient receptor potential cation channel subfamily M member 7 (Homo sapiens) (UniProt Q96QT4); test: Inhibition of human TRPM7 at 100 nM using MBP as substrate by [gamma-33P]-ATP assay
[23] = target: Casein kinase I isoform gamma-2 (Homo sapiens) (UniProt P78368); test: Inhibition of human CK1gamma2 at 100 nM using KRRRAL[pS]VASLPGL as substrate by [gamma-33P]-ATP assay
Homo sapiens [24] = species on record: Homo sapiens; test: Inhibition of human AMPK (A1/B1/G2) at 100 nM using HMRSAMSGLHLVKRR as substrate by [gamma-33P]-ATP assay
[25] = target: Myotonin-protein kinase (Homo sapiens) (UniProt Q09013); test: Inhibition of human DMPK at 100 nM using KKRNRRLSVA as substrate by [gamma-33P]-ATP assay
[26] = target: Serine/threonine-protein kinase Chk1 (Homo sapiens) (UniProt O14757); test: Inhibition of human CHK1 at 100 nM using KKKVSRSGLYRSPSMPENLNRPR as substrate by [gamma-33P]-ATP assay
Chain of Serine/threonine-protein kinase Chk1 (Homo sapiens) (O14757 whole entry): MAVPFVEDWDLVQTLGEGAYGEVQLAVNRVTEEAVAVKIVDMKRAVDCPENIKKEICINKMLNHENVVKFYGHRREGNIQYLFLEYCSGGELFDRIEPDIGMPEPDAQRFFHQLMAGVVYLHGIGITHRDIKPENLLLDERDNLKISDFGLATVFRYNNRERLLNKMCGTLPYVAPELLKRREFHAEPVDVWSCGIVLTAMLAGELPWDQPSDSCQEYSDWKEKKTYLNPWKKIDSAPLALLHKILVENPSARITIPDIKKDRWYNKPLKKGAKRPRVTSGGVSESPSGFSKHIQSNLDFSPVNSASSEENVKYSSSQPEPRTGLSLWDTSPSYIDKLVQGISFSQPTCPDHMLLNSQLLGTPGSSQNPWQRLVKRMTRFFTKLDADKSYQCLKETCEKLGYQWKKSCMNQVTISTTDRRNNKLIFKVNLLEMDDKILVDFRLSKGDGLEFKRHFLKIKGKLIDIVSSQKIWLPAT

[27] = target: Casein kinase II subunit alpha (Homo sapiens) (UniProt P68400); test: Inhibition of human CK2A at 100 nM using RRRDDDSDDD as substrate by [gamma-33P]-ATP assay
[28] = target: eIF-2-alpha kinase GCN2 (Homo sapiens) (UniProt Q9P2K8); test: Inhibition of human EIF2AK4 at 100 nM using MBP as substrate by [gamma-33P]-ATP assay
[29] = target: BDNF/NT-3 growth factors receptor (Homo sapiens) (UniProt Q16620); test: Inhibition of human TRKB at 100 nM using poly[Glu:Tyr] (4:1) as substrate by [gamma-33P]-ATP assay
PI3K p110 beta/p85 alpha = PI3K p110 beta/p85 alpha (Homo sapiens, UniProt P42338); test: Inhibition of recombinant human full length N-terminal GST-tagged PI3Kbeta (1 to 1070 residues)/PIK3R1 (1 to 724 residues) expressed in baculovirus expression system using PIP2 as substrate incubated for 2 hrs by ADP-Glo assay

Chain of Serine/threonine-protein kinase Nek4 (Homo sapiens) (P51957 whole entry, looked up): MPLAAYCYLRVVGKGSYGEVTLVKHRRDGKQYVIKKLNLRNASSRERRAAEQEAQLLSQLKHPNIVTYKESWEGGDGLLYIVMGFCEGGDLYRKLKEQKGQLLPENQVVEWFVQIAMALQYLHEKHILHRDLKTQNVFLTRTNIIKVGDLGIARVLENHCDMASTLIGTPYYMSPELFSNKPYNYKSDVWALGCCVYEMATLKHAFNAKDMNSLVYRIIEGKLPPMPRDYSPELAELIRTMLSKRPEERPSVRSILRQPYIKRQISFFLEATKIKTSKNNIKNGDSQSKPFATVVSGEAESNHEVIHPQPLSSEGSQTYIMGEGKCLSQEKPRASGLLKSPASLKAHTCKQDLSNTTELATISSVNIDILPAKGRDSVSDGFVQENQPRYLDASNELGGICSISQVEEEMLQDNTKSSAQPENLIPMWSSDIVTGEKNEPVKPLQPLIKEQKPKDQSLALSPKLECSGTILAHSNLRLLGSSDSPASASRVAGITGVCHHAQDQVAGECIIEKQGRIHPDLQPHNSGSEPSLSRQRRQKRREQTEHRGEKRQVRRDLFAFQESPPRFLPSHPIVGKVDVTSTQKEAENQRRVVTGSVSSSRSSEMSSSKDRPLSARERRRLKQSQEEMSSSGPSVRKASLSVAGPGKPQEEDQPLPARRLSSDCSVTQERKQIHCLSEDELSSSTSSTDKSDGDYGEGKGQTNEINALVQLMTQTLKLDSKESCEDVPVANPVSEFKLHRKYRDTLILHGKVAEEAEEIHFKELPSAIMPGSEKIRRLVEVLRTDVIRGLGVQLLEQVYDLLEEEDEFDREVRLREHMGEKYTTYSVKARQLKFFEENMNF

`COc1ccc(N2C(=O)COc3ccc(-c4cnc(OC)c(NS(=O)(=O)c5ccc(F)cc5)c4)cc32)cc1` gave an inhibition [1] of -6.56%, an inhibition [2] of -2.31% and an inhibition [3] of 2.83%. For the same compound, the inhibition [4] was -3.45%, the inhibition [5] was -4.79% and the inhibition [6] was 0.44%. The inhibition [7] was 10.9%, the inhibition [8] was -1.96% and the inhibition [9] was 3.96%. For the same compound, the inhibition [10] was -9.8%, the inhibition [11] was 1.93% and the inhibition [12] was 2.1%. For the same compound, the inhibition [13] was 6.33%, the inhibition [14] was 4.51% and the inhibition [15] was 16.8%. For the same compound, the inhibition (Homo sapiens [16]) was -8.51%, the inhibition [17] was 2.39% and the inhibition [18] was 9.62%. The inhibition [19] was -2.71%, the inhibition [20] was 10.1% and the inhibition [21] was -6.74%. It also gave an inhibition [22] of 1.61%, an inhibition [23] of 1.74% and an inhibition (Homo sapiens [24]) of -8.22%. The inhibition [25] was -4.58%, the inhibition [26] was 5.54% and the inhibition [27] was 12.7%. It also gave an inhibition [28] of 8.65%, an inhibition [29] of -0.11% and a pIC50 (PI3K p110 beta/p85 alpha) of 7.02.
